What was measured:
E-cad [1] = assay: E-cad expression after MS-275 in gefitinib-resistant NSCLC cell lines; type: cell-based, human; conditions: 24 hours after treatment with 4 or 10 μM
[2] = in vivo; cited from earlier work
E-cad [3] = conditions: lung cancer cell lines; cited from earlier work
NSCLC patients = conditions: cited from earlier work; for response rate: single agent, phase I studies, chemotherapy resistant NSCLC patients
A549 NSCLC cell line = assay: Apoptosis and cell death (cell cycle analysis); type: cell-based, human; conditions: 10 μM
Experimental: (§1) The effect of gefitinib on inducing apoptosis and cell death in NSCLC cell lines sensitive and resistant to gefitinib was evaluated. […].

Calu3 NSCLC cell line = assay: Apoptosis and cell death (cell cycle analysis); type: cell-based, human; conditions: 10 μM
Experimental: as §1

H322 NSCLC cell line = assay: Apoptosis and cell death (cell cycle analysis); type: cell-based, human; conditions: 10 μM
Experimental: as §1

H3255 NSCLC cell line = assay: Apoptosis and cell death (cell cycle analysis); type: cell-based, human; conditions: 10 μM
Experimental: as §1

H358 NSCLC cell line = assay: Apoptosis and cell death (cell cycle analysis); type: cell-based, human; conditions: 10 μM
Experimental: as §1

H157 NSCLC cell line = assay: Apoptosis and cell death (cell cycle analysis); type: cell-based, human; conditions: 10 μM
Experimental: (§2) The effect of gefitinib on inducing apoptosis and cell death in NSCLC cell lines sensitive and resistant to gefitinib was evaluated.

H460 NSCLC cell line = assay: Apoptosis and cell death (cell cycle analysis); type: cell-based, human; conditions: 10 μM
Experimental: as §2

H520 NSCLC cell line = assay: Apoptosis and cell death (cell cycle analysis); type: cell-based, human; conditions: 10 μM
Experimental: as §2

[4] = unselected gefitinib treated NSCLC patients

SMILES: Nc1ccccc1NC(=O)c1ccc(CNC(=O)OCc2cccnc2)cc1 [MS-275]
- upregulation of E-cad expression (E-cad [1]; H157): Eight to twelve
- upregulation of E-cad expression (E-cad [1]; H460): Eight to twelve
- upregulation of E-cad expression (E-cad [1]; H520): Eight to twelve
- half-life [2]: 100 h
- persistence of changes in histone acetylation following administration [2]: several weeks

SMILES: CC(/C=C/C(=O)NO)=C\[C@@H](C)C(=O)c1ccc(N(C)C)cc1 [TSA, trichostatin A]
- effect on E-cad (E-cad [3]): activation of E-cad

SMILES: C#Cc1cccc(Nc2ncnc3cc(OCCOC)c(OCCOC)cc23)c1 [erlotinib]
- survival (NSCLC patients; second or third line therapy, National Cancer Institute Canada trial): survival benefit
- response rate (NSCLC patients): about 10%

SMILES: COc1cc2ncnc(Nc3ccc(F)c(Cl)c3)c2cc1OCCCN1CCOCC1 [gefitinib]
- apoptosis and cell death (A549 NSCLC cell line): no apoptotic or necrotic effect
- increase in apoptosis and cell death (Calu3 NSCLC cell line): 2.3-3.4 fold
- increase in apoptosis and cell death (H322 NSCLC cell line): 2.3-3.4 fold
- increase in apoptosis and cell death (H3255 NSCLC cell line): 35 fold
- increase in apoptosis and cell death (H358 NSCLC cell line): 2.3-3.4 fold
- apoptosis and cell death (H157 NSCLC cell line): no apoptotic or necrotic effect
- apoptosis and cell death (H460 NSCLC cell line): no apoptotic or necrotic effect
- apoptosis and cell death (H520 NSCLC cell line): no apoptotic or necrotic effect
- response rate (NSCLC patients): about 10%
- objective response (NSCLC patients; [4]): up to 18%
- symptomatic improvement (NSCLC patients; [4]): 40%
